Assay results from US20230286970A1, “NOVEL OXADIAZOLE-BASED SELECTIVE HDAC6 INHIBITORS” (ITALFARMACO S.P.A., priority 2020, published 2023).

Key:
[1] = Stability in human plasma; conditions: after 4 hours, 37° C.
HDAC4 = HDAC4 (Homo sapiens (Human), UniProt P56524); assay: Enzymatic screening, HDAC4 inhibition; assay type: biochemical
Description: (§1) For each test compound, 100× concentrated DMSO solutions at 8 doses were prepared and then diluted in assay buffer (25 mM Tris-HCl, pH 8, 130 mM NaCl, 0.05% Tween-20, 10% Glycerol) to obtain 5× concentrated solutions in relation to the final concentrations (typical final concentration range—6.4-200000 nM or 0.18-50000 nM, final DMSO content—1%). Then 10 μL solution of each test compound concentration were placed on a 96-well plate in triplicate and 15 μL of 3.33× concentrated enzyme solution in the assay buffer containing 3.33× concentrated BSA (final BSA concentration—2 mg/mL for HDAC4, HDAC5 and HDAC9 or 1 mg/mL for other isoforms) and in the case of HDAC6-3.33× concentrated TCEP (final TCEP concentration—200 μM) were added to each well. After a period of preincubation (incubation times and temperatures vary for different isoforms and are shown in table 1) 25 μL of solution containing the substrate were added. As substrate, FLUOR DE LYS® deacetylase substrate (Enzo Life Sciences, cat: BML-KI104, FdL), FLUOR DE LYS®-Green substrate (Enzo Life Sciences, cat: BML-KI572, FdL_G) or Boc-Lys(Tfa)-AMC (Bachem, cat: 4060676.005, Tfal)—2× concentrated solution in assay buffer were used. Following a reaction period (reaction times and temperatures vary for different isoforms and are reported in Table 1), 50 μL of the development solution consisting of concentrate FLUOR DE LYS® developer I (Enzo Life Sciences, ca: BML-KI105), diluted 200 times in buffer (50 mM Tris-HCl, pH 8, 137 mM NaCl, 2.7 mM KCl, 1 mM MgCl2) plus 2 μM TSA was added and, after 25 minutes at room temperature in the dark, using the Victor 1420 Multilabel Counter Perkin Elmer Wallac instrument, the fluorescence reading was carried out.

HDAC11 = HDAC11 (Homo sapiens (Human), UniProt Q96DB2); assay: Enzymatic screening, HDAC11 inhibition; assay type: biochemical
Description: as §1

HDAC3 = HDAC3 (Homo sapiens (Human), UniProt O15379); assay: Enzymatic screening, HDAC3 inhibition; assay type: biochemical
Description: as §1

Stability in rat plasma = conditions: after 4 hours, 37° C.
[2] = Stability to Phase I metabolism in human S9 liver fraction; conditions: after 90 minutes, 37° C.
recombinant human HDAC1 = recombinant human HDAC1 (Homo sapiens (Human), UniProt Q13547); assay: Enzymatic screening, HDAC1 inhibition (fluorogenic FdL_G substrate); assay type: biochemical
Procedure, shortened: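 Recombinant human HDAC1 inhibition was measured fluorometrically using the FLUOR DE LYS-Green (FdL_G) substrate. Compounds at 8 doses (1% DMSO final) in Tris-HCl pH 8 buffer with NaCl, Tween-20 and glycerol were preincubated in triplicate with enzyme and 1 mg/mL BSA, then given substrate. Developer I plus 2 μM TSA was added, and fluorescence read after 25 minutes in the dark.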

HDAC7 = HDAC7 (Homo sapiens (Human), UniProt Q8WUI4); assay: Enzymatic screening, HDAC7 inhibition; assay type: biochemical
Description: as §1

HDAC5 = HDAC5 (Homo sapiens (Human), UniProt Q9UQL6); assay: Enzymatic screening, HDAC5 inhibition; assay type: biochemical
Description: as §1

HDAC8 = HDAC8 (Homo sapiens (Human), UniProt Q9BY41); assay: Enzymatic screening, HDAC8 inhibition; assay type: biochemical
Description: as §1

recombinant human HDAC6 = recombinant human HDAC6 (Homo sapiens (Human), UniProt Q9UBN7); assay: Enzymatic screening, HDAC6 inhibition (fluorogenic FdL_G substrate); assay type: biochemical
Procedure, shortened: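 Enzyme was preincubated with compound (8 doses, triplicate, 1% DMSO) in 25 mM Tris-HCl pH 8, 130 mM NaCl, 0.05% Tween-20, 10% glycerol, with BSA. A FLUOR DE LYS-Green substrate was then added, and fluorescence was read after developer plus 2 μM TSA.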

[3] = Stability to Phase I metabolism in rat S9 liver fraction; conditions: after 90 minutes, 37° C.
Description: Test compounds were incubated in rat and human liver S9 fraction at 37° C. up to 90 minutes in order to evaluate their stability to Phase I metabolism by hepatic enzymes. Each test compound was incubated at μM concentration (50 μM when the samples were analysed by UV/HPLC, 1 or 2 μM when the samples were analysed by LC-MS/MS) with S9 fraction (protein content 2 mg/m L) in 100 mM phosphate buffer (pH 7.4), 3.3 mM MgCl2 and 1.3 mM NADPH for 0, 10, 30, 60 and 90 minutes at 37° C. in a thermostated oscillating bath. The reaction was stopped placing samples on ice bath and adding acidified acetonitrile. After centrifugation (10 minutes at 14000 rpm) an aliquot of the supernatant was diluted with water, filtered with 0.45 μm regenerated cellulose syringe filters and injected in HPLC-UV or in LC-MS/MS. The percentage of the remaining amount at the various incubation times with respect to the initial amount were calculated.

[4] = test system: α-tubulin acetylation in 697 cell line; assay: In vitro α-tubulin acetylation in 697 cell line (ELISA); assay type: cell-based; conditions: 16 hours, read-out: fold increase @ 1 uM TubAc (ratio of acetylated tubulin and total tubulin towards control)
Description: The in vitro α-tubulin acetylation determination was evaluated on B 697 promyelocytic cell line.
The test molecules were diluted from 20 mM stock solution in DMSO with RPMI 10% FCS+0.01% DMSO medium at 20× concentration compared to the final concentration, added to the cells (15×10^6 cells in a total volume of 30 mL in RPMI medium 10% FCS+0.01% DMSO) to obtain the final concentrations of 1000, 333, 111, 37 nM and incubated at 37° C., 5% CO2 for 16 hours.
At the end of the incubation period, 5×10^6 cells were taken from each sample, centrifuged for 5 minutes at 1100 rpm and washed in 0.9% NaCl at 4° C. The resulting pellet was lysed by treating at 4° C. for 30 minutes with 150 μl of Complete Lysis-M buffer containing protease inhibitors (Complete Lysis-M Roche+Complete Tablets, Mini Easypack, cat: 4719956001) and phosphatase inhibitor cocktails (PhosStop Easypack, Roche, cat: 4906837001), then centrifuged 10 minutes at 14,000 rpm (20817×g). 0.3 μg of supernatant (total protein extract) were diluted in 100 μl of 1×PBS and immobilized in Maxisorp F96 NUN-IMMUNO Plate (Nunc MaxiSorp flat-bottom, Nunc, cat: 442404) at room temperature overnight. Plates were washed twice with Wash Buffer (PBS1×+0.005% tween 20) and saturated for 1 hour at room temperature with 300 μL of 1×PBS containing 10% FCS. After washing twice with Wash Buffer, the plates were incubated for two hours at room temperature in the presence of anti-acetylated-α-tubulin antibody (Monoclonal Anti-acetylated-tubulin clone 6-11B-1, mouse ascites fluid, Sigma, cat: T6793), 100 μl/well diluted 1:1000 in 1×PBS containing 10% FCS) or with total anti-α-tubulin antibody (Monoclonal Anti-alpha-tubulin produced in mouse, Sigma, cat: T6074). Following washing of the pates 5 times with Wash Buffer the secondary antibody conjugated with the enzyme HRP (Goat anti-Mouse IgG, IgM, IgA (H+L), Thermo Fisher Scientific, cat: A10668), diluted 1:1000 in 1×PBS+10% FBS was added at the volume of 100 μl/well.
After washing 4 times, 100 μl/well of TMB substrate kit was added for 10 minutes at room temperature in the dark. The reaction was stopped by adding 50 μl of 2N H2SO4. The plates were read at Multiskan Spectrum spectrophotometer at a wavelength of 450 nm.
The degree of acetylation was calculated by dividing the absorbance obtained for acetylated α-tubulin by the absorbance of total tubulin.
The results of tubulin acetylation, expressed as fold increase of ratio of acetylated α-tubulin/total α-tubulin, of each sample relative to the control sample (untreated) are summarized in table 6.

HDAC2 = HDAC2 (Homo sapiens (Human), UniProt Q92769); assay: Enzymatic screening, HDAC2 inhibition; assay type: biochemical
Description: as §1

HDAC10 = HDAC10 (Homo sapiens (Human), UniProt Q969S8); assay: Enzymatic screening, HDAC10 inhibition; assay type: biochemical
Description: as §1

HDAC9 = HDAC9 (Homo sapiens (Human), UniProt Q9UKV0); assay: Enzymatic screening, HDAC9 inhibition; assay type: biochemical
Description: as §1

Chain of recombinant human HDAC6 (Q9UBN7 whole entry): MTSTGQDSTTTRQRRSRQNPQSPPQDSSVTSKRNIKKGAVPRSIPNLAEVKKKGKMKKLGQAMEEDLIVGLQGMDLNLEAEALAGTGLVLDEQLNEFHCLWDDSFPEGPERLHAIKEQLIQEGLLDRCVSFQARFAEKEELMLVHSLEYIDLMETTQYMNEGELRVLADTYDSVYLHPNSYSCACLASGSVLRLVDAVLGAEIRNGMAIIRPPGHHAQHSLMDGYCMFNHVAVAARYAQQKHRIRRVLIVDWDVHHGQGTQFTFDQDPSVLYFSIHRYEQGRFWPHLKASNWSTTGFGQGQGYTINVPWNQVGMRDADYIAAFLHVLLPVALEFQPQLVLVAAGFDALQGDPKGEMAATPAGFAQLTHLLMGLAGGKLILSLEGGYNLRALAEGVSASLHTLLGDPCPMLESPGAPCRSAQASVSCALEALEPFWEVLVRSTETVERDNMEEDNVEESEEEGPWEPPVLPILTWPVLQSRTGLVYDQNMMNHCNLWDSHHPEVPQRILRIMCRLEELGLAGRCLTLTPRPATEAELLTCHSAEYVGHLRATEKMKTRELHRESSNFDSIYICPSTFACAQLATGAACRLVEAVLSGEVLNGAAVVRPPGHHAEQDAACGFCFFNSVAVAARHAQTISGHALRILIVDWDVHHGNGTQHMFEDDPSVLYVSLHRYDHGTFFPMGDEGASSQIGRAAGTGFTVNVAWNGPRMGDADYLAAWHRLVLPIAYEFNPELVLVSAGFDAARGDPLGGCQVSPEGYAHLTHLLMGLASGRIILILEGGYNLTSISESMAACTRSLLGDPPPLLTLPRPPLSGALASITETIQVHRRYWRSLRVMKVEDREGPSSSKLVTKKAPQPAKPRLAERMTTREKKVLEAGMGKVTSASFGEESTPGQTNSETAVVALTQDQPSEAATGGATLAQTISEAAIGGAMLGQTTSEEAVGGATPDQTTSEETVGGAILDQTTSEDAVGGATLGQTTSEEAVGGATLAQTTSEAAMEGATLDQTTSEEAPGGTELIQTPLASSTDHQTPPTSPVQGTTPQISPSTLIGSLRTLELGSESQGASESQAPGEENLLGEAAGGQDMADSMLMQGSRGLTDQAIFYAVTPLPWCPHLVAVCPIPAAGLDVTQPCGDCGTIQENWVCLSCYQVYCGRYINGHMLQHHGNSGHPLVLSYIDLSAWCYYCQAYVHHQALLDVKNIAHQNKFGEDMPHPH
Chain of recombinant human HDAC1 (Q13547 whole entry): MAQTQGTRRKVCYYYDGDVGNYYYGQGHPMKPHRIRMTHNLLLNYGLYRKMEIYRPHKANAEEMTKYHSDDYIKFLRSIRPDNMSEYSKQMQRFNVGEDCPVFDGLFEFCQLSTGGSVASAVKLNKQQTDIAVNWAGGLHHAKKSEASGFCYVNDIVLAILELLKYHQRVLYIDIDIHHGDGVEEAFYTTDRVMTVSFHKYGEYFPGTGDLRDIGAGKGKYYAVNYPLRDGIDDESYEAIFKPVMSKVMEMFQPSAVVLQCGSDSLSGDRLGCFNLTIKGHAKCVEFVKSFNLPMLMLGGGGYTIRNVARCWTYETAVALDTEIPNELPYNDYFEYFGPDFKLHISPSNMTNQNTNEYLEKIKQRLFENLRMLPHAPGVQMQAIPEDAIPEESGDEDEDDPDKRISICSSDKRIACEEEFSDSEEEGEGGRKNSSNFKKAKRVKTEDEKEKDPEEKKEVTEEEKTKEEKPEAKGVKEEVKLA
Chain of HDAC3 (O15379 whole entry): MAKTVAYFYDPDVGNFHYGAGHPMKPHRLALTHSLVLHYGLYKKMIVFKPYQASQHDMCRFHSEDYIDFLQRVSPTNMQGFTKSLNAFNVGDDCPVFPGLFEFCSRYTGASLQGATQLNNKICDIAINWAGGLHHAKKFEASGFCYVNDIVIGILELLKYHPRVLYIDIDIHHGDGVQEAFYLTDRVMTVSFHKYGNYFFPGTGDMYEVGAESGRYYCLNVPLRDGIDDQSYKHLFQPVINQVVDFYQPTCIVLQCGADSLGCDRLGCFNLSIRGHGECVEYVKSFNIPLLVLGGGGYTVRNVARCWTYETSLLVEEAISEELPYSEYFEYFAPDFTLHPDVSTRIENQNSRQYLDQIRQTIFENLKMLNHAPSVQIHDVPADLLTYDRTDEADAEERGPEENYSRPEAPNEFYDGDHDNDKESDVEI
Chain of HDAC3 (Q9Y618 395-489 partner): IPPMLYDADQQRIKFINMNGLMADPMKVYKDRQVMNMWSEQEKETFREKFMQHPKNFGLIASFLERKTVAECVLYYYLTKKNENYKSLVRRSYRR
Chain of HDAC7 (Q8WUI4 whole entry): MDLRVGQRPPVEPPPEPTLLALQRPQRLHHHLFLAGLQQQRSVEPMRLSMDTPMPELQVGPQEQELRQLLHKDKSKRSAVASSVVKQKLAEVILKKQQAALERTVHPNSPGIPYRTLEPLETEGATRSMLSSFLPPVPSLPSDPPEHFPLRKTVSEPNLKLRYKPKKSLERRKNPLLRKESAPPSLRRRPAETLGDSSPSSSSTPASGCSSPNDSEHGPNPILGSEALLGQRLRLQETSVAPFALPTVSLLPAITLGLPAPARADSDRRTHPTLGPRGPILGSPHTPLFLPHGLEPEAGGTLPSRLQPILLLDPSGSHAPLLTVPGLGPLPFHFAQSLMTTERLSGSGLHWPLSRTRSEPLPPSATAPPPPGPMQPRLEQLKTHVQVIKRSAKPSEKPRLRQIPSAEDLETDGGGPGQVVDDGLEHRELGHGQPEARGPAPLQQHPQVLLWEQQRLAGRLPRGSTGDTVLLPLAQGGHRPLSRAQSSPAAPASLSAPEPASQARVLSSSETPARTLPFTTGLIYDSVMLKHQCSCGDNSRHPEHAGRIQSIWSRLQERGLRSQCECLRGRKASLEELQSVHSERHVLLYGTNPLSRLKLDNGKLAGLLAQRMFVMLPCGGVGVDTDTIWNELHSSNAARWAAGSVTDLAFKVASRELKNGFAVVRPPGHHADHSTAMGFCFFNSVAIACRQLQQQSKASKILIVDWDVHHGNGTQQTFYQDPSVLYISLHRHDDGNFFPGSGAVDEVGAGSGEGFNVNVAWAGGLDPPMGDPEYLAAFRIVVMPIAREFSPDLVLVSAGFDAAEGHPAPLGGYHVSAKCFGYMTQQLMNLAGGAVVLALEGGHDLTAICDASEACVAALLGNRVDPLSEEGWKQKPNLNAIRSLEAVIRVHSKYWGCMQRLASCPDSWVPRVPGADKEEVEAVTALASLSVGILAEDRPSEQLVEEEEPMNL
Chain of HDAC2 (Q92769 whole entry): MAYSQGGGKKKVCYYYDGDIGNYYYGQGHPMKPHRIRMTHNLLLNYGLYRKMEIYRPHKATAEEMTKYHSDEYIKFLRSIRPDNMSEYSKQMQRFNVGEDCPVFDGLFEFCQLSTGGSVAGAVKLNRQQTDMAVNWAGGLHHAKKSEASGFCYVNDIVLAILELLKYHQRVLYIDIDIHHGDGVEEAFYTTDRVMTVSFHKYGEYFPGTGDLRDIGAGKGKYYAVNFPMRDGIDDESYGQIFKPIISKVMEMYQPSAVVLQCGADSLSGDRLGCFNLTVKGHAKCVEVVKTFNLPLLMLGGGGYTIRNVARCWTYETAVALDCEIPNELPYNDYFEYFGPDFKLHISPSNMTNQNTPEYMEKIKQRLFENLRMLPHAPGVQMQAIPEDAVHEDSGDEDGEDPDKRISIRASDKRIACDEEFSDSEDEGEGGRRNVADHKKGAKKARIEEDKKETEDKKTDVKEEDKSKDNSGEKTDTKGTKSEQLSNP
Chain of HDAC11 (Q96DB2 whole entry): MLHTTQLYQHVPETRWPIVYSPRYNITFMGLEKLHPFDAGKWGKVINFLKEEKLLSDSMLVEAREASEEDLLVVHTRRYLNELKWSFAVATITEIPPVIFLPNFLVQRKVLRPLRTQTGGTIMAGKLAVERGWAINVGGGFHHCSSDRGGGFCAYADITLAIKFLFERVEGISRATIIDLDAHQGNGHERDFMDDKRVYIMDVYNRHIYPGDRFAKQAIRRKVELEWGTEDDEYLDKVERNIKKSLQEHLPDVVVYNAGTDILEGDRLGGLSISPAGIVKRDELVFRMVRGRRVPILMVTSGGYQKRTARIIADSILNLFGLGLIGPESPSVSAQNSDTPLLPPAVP
Chain of HDAC10 (Q969S8 whole entry): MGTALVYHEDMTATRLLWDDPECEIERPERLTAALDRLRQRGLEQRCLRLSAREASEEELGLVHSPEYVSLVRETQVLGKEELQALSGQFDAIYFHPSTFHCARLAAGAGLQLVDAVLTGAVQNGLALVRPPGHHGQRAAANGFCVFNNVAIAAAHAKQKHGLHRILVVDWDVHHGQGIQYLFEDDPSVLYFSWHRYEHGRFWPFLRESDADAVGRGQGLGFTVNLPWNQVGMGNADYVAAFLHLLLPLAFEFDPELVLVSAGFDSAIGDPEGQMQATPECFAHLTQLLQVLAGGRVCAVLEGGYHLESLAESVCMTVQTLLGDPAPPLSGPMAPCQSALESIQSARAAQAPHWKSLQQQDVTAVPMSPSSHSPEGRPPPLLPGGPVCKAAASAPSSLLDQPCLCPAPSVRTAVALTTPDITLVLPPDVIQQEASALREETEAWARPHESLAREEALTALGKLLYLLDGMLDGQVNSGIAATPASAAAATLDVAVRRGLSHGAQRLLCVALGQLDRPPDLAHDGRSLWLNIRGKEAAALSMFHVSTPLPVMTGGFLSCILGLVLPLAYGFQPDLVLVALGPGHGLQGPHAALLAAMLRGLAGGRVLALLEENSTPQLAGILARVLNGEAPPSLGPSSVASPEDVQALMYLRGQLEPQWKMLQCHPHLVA

| SMILES | residual percentage in HUMAN PLASMA [1] [%] | IC50 (HDAC4) [µM] | IC50 (HDAC11) [µM] | IC50 (HDAC3) [µM] | residual percentage in RAT PLASMA (Stability in rat plasma) [%] | residual percentage in HUMAN S9 FRACTION [2] [%] | IC50 (recombinant human HDAC1) [µM] | IC50 (HDAC7) [µM] | IC50 (HDAC5) [µM] | IC50 (HDAC8) [µM] | IC50 (recombinant human HDAC6) [µM] | residual percentage in RAT S9 FRACTION [3] [%] | fold induction at 1 µM [4] | IC50 (HDAC2) [µM] | IC50 (HDAC10) [µM] | IC50 (HDAC9) [µM] |
| --- | --- | --- | --- | --- | --- | --- | --- | --- | --- | --- | --- | --- | --- | --- | --- | --- |
| Nc1nc2ccc(-c3cn(Cc4ccc(-c5nnc(C(F)F)o5)cn4)nn3)cc2s1 [Compd. 1, 6-(1-((5-(5-(difluoromethyl)-1,3,4-oxadiazol-2-yl)pyridin-2-yl)methyl)-1H-1,2,3-triazol-4-yl)benzo[d]thiazol-2-amine] | 85 | > 30 | > 30 | > 30 | 79 | 93 | > 200 | > 30 | > 30 | > 200 | 0.007 | 96 | 25 | > 30 | > 30 | > 30 |
| FC(F)c1nnc(-c2ccc(Cn3cc(-c4ccc5nc(Cl)[nH]c5c4)nn3)nc2)o1 [Compd. 9, 2-(6-((4-(2-chloro-1H-benzo[d]imidazol-6-yl)-1H-1,2,3-triazol-1-yl)methyl)pyridin-3-yl)-5-(difluoromethyl)-1,3,4-oxadiazole] | 59 | 5.01 | > 30 | > 30 | 87 | 83 | > 200 | 3.08 | 1.51 | 1.41 | 0.015 | 90 | 17 | > 30 | > 30 | 0.971 |
| Nc1ccc(-c2cn(C(CN3CCCC3)c3ccc(-c4nnc(C(F)F)o4)cc3)nn2)cn1 (stereo not shown) [Compd. 124, 5-(1-(1-(4-(5-(difluoromethyl)-1,3,4-oxadiazol-2-yl)phenyl)-2-(pyrrolidin-1-yl)ethyl)-1H-1,2,3-triazol-4-yl)pyridin-2-amine] | 94 |  |  |  | 92 | 91 | > 200 |  |  |  | 0.047 | 96 | 13 |  |  |  |
| C[C@H](c1ccc(-c2nnc(C(F)F)o2)cn1)n1cc(-c2ccc(N)nc2)nn1 [Compd. 32, (R)-5-(1-(1-(5-(5-(difluoromethyl)-1,3,4-oxadiazol-2-yl)pyridin-2-yl)ethyl)-1H-1,2,3-triazol-4-yl)pyridin-2-amine] | 97 |  |  |  | 67 | 97 | > 200 |  |  |  | 0.014 | 91 | 31 |  |  |  |
| O=C1Nc2cc(-c3cn(Cc4ccc(-c5nnc(C(F)F)o5)cn4)nn3)ccc2NC12CCNCC2 [compound 41, 6′-(1-((5-(5-(difluoromethyl)-1,3,4-oxadiazol-2-yl)pyridin-2-yl)methyl)-1H-1,2,3-triazol-4-yl)-1′,4′-dihydro-3′H-spiro[piperidine-4,2′-quinoxalin]-3′-one] | 91 |  |  |  | 77 | 94 | 123 |  |  |  | 0.019 | 92 | 4 |  |  |  |
| C[C@@H](c1ccc(-c2nnc(C(F)F)o2)cc1)n1cc(-c2cccc(NC(=O)N3CCOCC3)c2)nn1 (stereo in doubt) [compound 104, N-(3-(1-(1-(4-(5-(difluoromethyl)-1,3,4-oxadiazol-2-yl)phenyl)ethyl)-1H-1,2,3-triazol-4-yl)phenyl)morpholine-4-carboxamide] | 92 |  |  |  | 87 | 86 | > 200 |  |  |  | 0.04 | 78 | 15 |  |  |  |
| NC(=O)c1ccc(-c2nnn(Cc3ccc(-c4nnc(C(F)F)o4)cc3)n2)cc1 [compound 116, 4-(2-(4-(5-(difluoromethyl)-1,3,4-oxadiazol-2-yl)benzyl)-2H-tetrazol-5-yl)benzamide] | 82 |  |  |  | 75 | 92 | > 200 |  |  |  | 0.044 | 71 | 5 |  |  |  |
